How the values were obtained:
NKCC1 = assay: Immunostaining of organ culture kidney sections; assay type: cell-based, mouse; conditions: 1-5 uM, cAMP-treated E15.5 organ culture kidneys, images not shown
Protocol: To also test whether GMZ can target the Hsp90 client protein NKCC1, sections of E15.5 organ culture kidneys treated with cAMP or cAMP plus GMZ were immunostained with an antibody for NKCC1 (methods in Magenheimer, et al., 2006). […] Consistent with the known localization of NKCC1 in the kidney, the immunolabeling appeared to be decreased in the metanephric mesenchyme and collecting ducts when GMZ was used at 1-5 uM.

total ERK = assay: Western blot of treated ADPKD cells; assay type: cell-based, human; conditions: 50 uM for 48 h
Protocol: (§1) Gamendazole (GMZ) was tested to determine if treatment decreases Hsp90 client protein levels in ADPKD cells. Briefly, ADPKD cells were treated with 50 μM GMZ for 24, 48 or 72 hours. Proteins from 20 μg total cell lysate were separated by SDS-PAGE, transferred to a PVDF membrane and probed with antibodies against the Hsp90 client proteins ErbB2 (185 kD), and cdk4 (34 kD). […] GMZ decreased the total levels of these client proteins in ADPKD cells. A decrease in P-ERK correlates with the inhibition of cell proliferation by GMZ. […] The data also provides an indication that other lonidamine derivatives may be useful in therapies for PKD.

P-ERK = assay: Western blot of treated ADPKD cells; assay type: cell-based, human; conditions: 50 uM for 48 h, n=2
Protocol: as §1

rats = assay: Animal tolerance studies of GMZ; assay type: in vivo, rat
Text: The parent compound of GMZ, Lonidamine, inhibits the chloride channel CFTR, interferes with cellular energy output and has been used as an anticancer drug. […] GMZ binds directly to Hsp90-beta and eukaryotic elongation factor eEF1A as shown by affinity chromatography and direct binding studies.

[1] = system: Salmonella Typhimurium TA 100; assay: Ames test for mutagenicity (plate assay, colony count); conditions: 48 hours at 37° C.
[2] = target: Hsp82 (the yeast homologue of Hsp90) (Saccharomyces cerevisiae, UniProt P02829); assay: Cross-linking of biotinylated analogue to purified protein, competition with excess RC-MC-110; assay type: binding; conditions: 10-fold excess of RC-MC-110, purified protein, UV cross-linking
Sequence of Hsp82 (the yeast homologue of Hsp90) (P02829 whole entry): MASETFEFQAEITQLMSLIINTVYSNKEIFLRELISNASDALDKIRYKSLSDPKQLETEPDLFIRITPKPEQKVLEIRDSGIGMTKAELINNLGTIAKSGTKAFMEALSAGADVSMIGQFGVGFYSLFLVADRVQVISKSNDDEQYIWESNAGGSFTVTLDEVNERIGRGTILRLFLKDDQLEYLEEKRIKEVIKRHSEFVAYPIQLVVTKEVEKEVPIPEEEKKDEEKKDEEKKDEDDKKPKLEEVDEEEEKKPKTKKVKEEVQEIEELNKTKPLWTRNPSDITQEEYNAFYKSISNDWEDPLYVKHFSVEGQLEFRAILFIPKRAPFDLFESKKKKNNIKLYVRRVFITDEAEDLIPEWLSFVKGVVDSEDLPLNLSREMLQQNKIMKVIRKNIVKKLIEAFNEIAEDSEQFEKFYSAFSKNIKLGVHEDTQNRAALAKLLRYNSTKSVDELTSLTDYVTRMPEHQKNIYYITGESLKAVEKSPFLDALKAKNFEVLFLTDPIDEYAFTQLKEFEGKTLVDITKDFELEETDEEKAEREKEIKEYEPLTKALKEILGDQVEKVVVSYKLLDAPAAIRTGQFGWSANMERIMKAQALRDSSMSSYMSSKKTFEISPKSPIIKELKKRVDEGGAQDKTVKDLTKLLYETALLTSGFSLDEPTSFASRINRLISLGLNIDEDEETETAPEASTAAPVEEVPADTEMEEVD
Protocol: In this example, the binding of cross-linked biotinylated RC-MC-110 ([…]) to Hsp82 (the yeast homologue of Hsp90) was investigated by a cross-linking and biotinylated analogue of RC-MC-110.
The buffer solution in this examples was comprised of 50 mM Tris-HCl, pH 7.4, 50 mM NaCl, 5 mM EDTA, and 50 mM NaF.
First, the protein was diluted with the buffer solution above to give a final concentration of 0.278 mg/ml. The stock protein concentration was 22 mg/ml in 5 μl aliquots.
Next the drug was diluted as follows. Stock concentrations of RC-MC-210 (see structure below) were 0.6 mg/ml (cross-linked biotinylated analogue of RC-MC-110). A 300 μl aliquot was thawed, and separated into two 150 μl aliquots. Dilutions were in the order of 1, ½, ¼, ⅛, 1/16 of the stock solutions. The stock concentration of the competition solution was 0.6 mg/ml RC-MC-210 (549 μM), and about 0.9 mg of RC-MC-110 was dissolved in 150 μl of RC-MC-210 solution to give a final concentration of 6 mg/ml (14.5 mM).
The competition solution had the same concentration of RC-MC-210, but a 10-fold excess of RC-MC-110 (non-biotinylated) to its respective concentration (e.g: ½ RC-MC-210, then the RC-MC-110 was 10× that concentration.)
To prepare of the incubation reactions, 18 μl of protein from a 0.277 mg/ml diluted stock (about 5 μg of protein) was incubated with 2 μl of drug for 1 hr at 4° C. with gentle rocking. […]

Male Long Evans rats = assay: In vivo antispermatogenic testing in Long Evans rats

SMILES | NKCC1 staining (NKCC1) | total ERK levels (total ERK) | P-ERK levels (P-ERK) | histopathology (rats; 25 mg/kg of IP dosage) | behavioral or body weight changes (rats; rats, five days post-treatment) | Ames test (+)S9 0.1 mg/pl. ([1]; (+)S9 mix, 0.1 mg/pl.) | Ames test (+)S9 1 mg/pl. ([1]; (+)S9 mix, 1 mg/pl.) | Ames test (+)S9 10 mg/pl. ([1]; (+)S9 mix, 10 mg/pl.) | Ames test (−)S9 0.1 mg/pl. ([1]; (−)S9 mix, 0.1 mg/pl.) | Ames test (−)S9 1 mg/pl. ([1]; (−)S9 mix, 1 mg/pl.) | Ames test (−)S9 10 mg/pl. ([1]; (−)S9 mix, 10 mg/pl.) | Competition of the binding of the cross-linked biotinylated analogue to Hsp82 [2] | Mortality (25 mg/kg) (Male Long Evans rats; 25 mg/kg single i.p. injection, […]) | Response 25 mg/kg (Male Long Evans rats; 25 mg/kg single i.p. injection, animals responding out of animals surviving, five days following injection) | Mortality (200 mg/kg) (Male Long Evans rats; 200 mg/kg single i.p. injection, […]) | Response 200 mg/kg (Male Long Evans rats; 200 mg/kg single i.p. injection, animals responding out of animals surviving, five days following injection)
O=C(O)CCc1nn(Cc2ccc(Cl)cc2Cl)c2cc(C(F)(F)F)ccc12 [GMZ, 3-[1-(2,4-dichlorobenzyl)-6-trifluoromethyl-1H-indazol-3-yl]-propionic acid] | NKCC1 staining was reduced | unchanged | 71.2 % of controls | no apparent histopathology in any organ | no evidence of behavioral or body weight changes | – | – | – | – | – | – | – | – | – | – | –
O=C(O)/C=C/c1nn(Cc2ccc(Cl)cc2Cl)c2cc(C(F)(F)F)ccc12 [RC-MC-110, trans 3-[1-(2,4-dichlorobenzyl)-6-trifluoromethyl-1H-indazol-3-yl]-acrylic acid] | – | – | – | – | – | Pass | Pass | Pass | Pass | Pass | Pass | the binding competes with excess RC-MC-110 | 0/5 | 5/5 | 3/5 | 2/2
